Measurements published in ChEMBL document CHEMBL2429854, “Influences of hydrocarbon linkers on the receptor binding affinities of gonadotropin-releasing hormone peptides” (Bioorg Med Chem Lett, 2013).
pIC50: −log10 of the molar value.

What was measured:
[1] = target: T1, Gonadotropin-releasing hormone receptor (Homo sapiens) (UniProt P30968); experiment: Displacement of [111In]-DOTA-Aun-(D-Lys6-GnRH) from human GnRH receptor after 3 hrs by gamma-counting; details: concentration not given here
T1 sequence (whole entry): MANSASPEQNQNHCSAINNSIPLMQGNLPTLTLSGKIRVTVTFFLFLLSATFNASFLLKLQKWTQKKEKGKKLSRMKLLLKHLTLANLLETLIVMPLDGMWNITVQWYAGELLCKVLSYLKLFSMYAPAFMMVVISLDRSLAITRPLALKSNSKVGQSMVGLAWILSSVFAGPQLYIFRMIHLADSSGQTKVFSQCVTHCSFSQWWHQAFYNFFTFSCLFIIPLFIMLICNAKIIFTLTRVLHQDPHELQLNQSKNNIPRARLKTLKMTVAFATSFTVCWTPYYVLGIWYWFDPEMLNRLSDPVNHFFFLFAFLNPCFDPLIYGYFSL

[2] = target: T2, Gonadotropin-releasing hormone receptor (Homo sapiens, UniProt P30968); experiment: Displacement of [125I]-[DTrp6]-LH-RH from human GnRH receptor after 3 hrs by gamma counting
T2 sequence (P30968 whole entry): T1 sequence (whole entry)

inhibition [1] [%] | pIC50 [2] | Structure (SMILES)
85 | – | CC(C)C[C@H](NC(=O)[C@@H](CCCCNC(=O)CCCCCCCCCCNC(=O)CN1CCN(CC(=O)O)CCN(CC(=O)O)CCN(CC(=O)O)CC1)NC(=O)[C@H](Cc1ccc(O)cc1)NC(=O)[C@H](CO)NC(=O)[C@H](Cc1c[nH]c2ccccc12)NC(=O)[C@H](Cc1cnc[nH]1)NC(=O)[C@@H]1CCC(=O)N1)C(=O)N[C@@H](CCCNC(=N)N)C(=O)N1CCC[C@H]1C(=O)NCC(N)=O
– | 6.87 | CC(C)C[C@H](NC(=O)[C@@H](CCCCNC(=O)CCCNC(=O)CN1CCN(CC(=O)O)CCN(CC(=O)O)CCN(CC(=O)O)CC1)NC(=O)[C@H](Cc1ccc(O)cc1)NC(=O)[C@H](CO)NC(=O)[C@H](Cc1c[nH]c2ccccc12)NC(=O)[C@H](Cc1cnc[nH]1)NC(=O)[C@@H]1CCC(=O)N1)C(=O)N[C@@H](CCCN=C(N)N)C(=O)N1CCC[C@H]1C(=O)NCC(N)=O
